# Reference: publication PMC2981508 (Science (New York, N.Y.), 2009)
# Tests used:
# progesterone receptor = target: T1, progesterone receptor (Homo sapiens, UniProt P06401); assay: in vitro fluorescence polarization binding assay
# T1 sequence (P06401 1-933): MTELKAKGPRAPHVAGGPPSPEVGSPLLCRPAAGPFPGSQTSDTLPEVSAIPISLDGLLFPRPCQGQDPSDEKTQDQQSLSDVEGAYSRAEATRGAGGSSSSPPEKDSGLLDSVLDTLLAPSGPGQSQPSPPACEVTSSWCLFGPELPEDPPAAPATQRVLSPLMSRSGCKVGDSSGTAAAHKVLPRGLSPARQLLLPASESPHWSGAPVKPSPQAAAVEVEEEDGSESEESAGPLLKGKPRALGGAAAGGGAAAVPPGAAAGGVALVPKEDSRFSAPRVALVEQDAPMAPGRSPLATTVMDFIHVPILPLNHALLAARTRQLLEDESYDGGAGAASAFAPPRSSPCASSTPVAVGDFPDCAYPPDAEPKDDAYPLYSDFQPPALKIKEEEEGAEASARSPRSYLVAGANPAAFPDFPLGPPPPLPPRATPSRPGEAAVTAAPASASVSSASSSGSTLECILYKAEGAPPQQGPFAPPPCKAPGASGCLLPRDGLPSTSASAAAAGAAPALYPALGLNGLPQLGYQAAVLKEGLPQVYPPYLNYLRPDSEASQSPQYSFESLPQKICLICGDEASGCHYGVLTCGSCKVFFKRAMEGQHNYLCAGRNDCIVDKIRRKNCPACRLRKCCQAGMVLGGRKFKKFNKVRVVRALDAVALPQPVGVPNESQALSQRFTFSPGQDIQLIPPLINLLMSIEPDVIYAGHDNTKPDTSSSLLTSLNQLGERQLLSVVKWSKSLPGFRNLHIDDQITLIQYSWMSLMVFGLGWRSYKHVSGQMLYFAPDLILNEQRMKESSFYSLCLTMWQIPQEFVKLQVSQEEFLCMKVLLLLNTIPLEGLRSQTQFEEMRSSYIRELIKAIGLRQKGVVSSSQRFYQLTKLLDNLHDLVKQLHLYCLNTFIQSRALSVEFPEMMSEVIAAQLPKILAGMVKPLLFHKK
# [1] = system: AR target genes PSA and TMPRSS2 in LNCaP/AR cells; assay: qRT-PCR of AR-dependent genes in LNCaP/AR cells; format: cell-based, human; conditions: androgen-depleted media 5% CSS, 8 hours, 1 and 10 μM
# [2] = target: T2, mutant AR protein (W741C) (Homo sapiens, UniProt P10275, W742C); format: cell-based
# T2 sequence (P10275 1-920 W742C): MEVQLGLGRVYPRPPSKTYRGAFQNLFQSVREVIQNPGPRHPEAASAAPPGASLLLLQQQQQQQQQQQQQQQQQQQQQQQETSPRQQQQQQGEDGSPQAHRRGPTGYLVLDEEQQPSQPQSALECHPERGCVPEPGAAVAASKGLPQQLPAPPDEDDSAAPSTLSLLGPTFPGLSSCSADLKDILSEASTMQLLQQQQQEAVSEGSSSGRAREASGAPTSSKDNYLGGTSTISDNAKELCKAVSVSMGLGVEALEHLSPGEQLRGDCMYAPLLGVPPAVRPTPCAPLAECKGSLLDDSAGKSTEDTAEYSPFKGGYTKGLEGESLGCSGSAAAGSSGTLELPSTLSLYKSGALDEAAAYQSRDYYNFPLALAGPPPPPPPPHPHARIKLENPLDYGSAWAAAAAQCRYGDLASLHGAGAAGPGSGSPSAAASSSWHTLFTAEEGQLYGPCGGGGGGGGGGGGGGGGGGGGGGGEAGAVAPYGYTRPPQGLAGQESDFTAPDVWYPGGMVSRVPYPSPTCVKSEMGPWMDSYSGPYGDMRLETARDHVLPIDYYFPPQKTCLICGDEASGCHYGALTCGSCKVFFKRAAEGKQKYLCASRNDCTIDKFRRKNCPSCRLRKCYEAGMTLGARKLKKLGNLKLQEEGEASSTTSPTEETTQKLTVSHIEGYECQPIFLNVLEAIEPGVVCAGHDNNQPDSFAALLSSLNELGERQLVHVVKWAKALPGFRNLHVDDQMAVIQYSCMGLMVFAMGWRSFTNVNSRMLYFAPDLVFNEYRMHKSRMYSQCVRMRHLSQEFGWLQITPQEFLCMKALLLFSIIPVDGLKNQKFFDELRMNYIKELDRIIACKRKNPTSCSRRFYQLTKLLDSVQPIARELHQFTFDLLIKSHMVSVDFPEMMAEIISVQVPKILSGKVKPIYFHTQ
# VP16-AR fusion protein = format: cell-based; conditions: Cos-7 cells, 24 hours
# AR = format: cell-based; conditions: in vitro
smiles,measurement,setting,value
CNC(=O)c1ccc(N2C(=S)N(c3ccc(C#N)c(C(F)(F)F)c3)C(=O)C23CCC3)cc1F [RD162],binding to progesterone receptor,progesterone receptor,little to no binding
same,Expression of AR target genes PSA and TMPRSS2 (agonist activity),[1],do not have agonist activity
same,Transcriptional activity of mutant AR (W741C),[2],inhibited the transcriptional activity
same,Activation of VP16-AR,VP16-AR fusion protein,neither RD162 nor MDV3100 activated VP16-AR
same,effects on AR protein expression,AR,no obvious changes
